Structures can show the parent of a compound that is named as a salt.
How the values were obtained:
[1] = system: adults with CCR5 tropic HIV-1; assay: Study 202 post-hoc APRI and FIB-4 fibrosis index scores; format: in vivo, human
Protocol: APRI and FIB-4 scores were calculated. Change in score category from baseline (BL) to Weeks 24 and 48 was assessed in patients with non-missing data. Correlations between changes from BL in APRI and FIB-4 scores, and MCP-1 (CCR2 ligand) and sCD14 (inflammatory biomarker) levels were evaluated.

[2] = system: HIV-1 infected adult subjects; assay: Study 202 biomarkers of inflammation; format: in vivo, human
Protocol: As an exploratory analysis, levels of inflammation biomarkers MCP-1, sCD14, high sensitivity C-reactive protein [hs-CRP], interleukin-6 [IL-6], D-dimer, and fibrinogen) were measured. Baseline values and changes from baseline at Week 24 and Week 48 of MCP-1, sCD14, hs-CRP, IL-6, D-dimer, and fibrinogen are summarized in Table 22.
The sCD14 samples were originally analyzed in 2 separate batches: Batch 1 included samples leading up to the Week 24 primary analysis and Batch 2 included Week 32 and Week 48 (end of study) samples. A repeat analysis of archived samples all analyzed in one batch was conducted for consistency in analysis across time points. To control for the effects of covariates, a linear mixed-model repeated-measures analysis was conducted on the changes from baseline in sCD14 (analysis dated September 2013).

[3] = Phase 1 CVC and pioglitazone co-administration PK and safety study; format: in vivo, healthy subjects; details: CVC 150 mg QD and PGZ 45 mg QD
Protocol: Plasma samples were collected prior to each dose and over 24 hours at the end of each treatment period. Cmax, Cmin, tmax, and AUC0-tau were determined using non-compartmental methods. Geometric means, GMRs and CIs were calculated.

[4] = Solubility of cenicriviroc mesylate; format: physicochemical
Text: In one embodiment, the acid addition salt of cenicriviroc is cenicriviroc mesylate, e.g., (S)-8-[4-(2-Butoxyethoxy)phenyl]-1-isobutyl-N-(4-{[(1-propyl-1H-imidazol-5-yl)methyl]sulfinyl}phenyl)-1,2,3,4-tetrahydro-1-benzazocine-5-carboxamide monomethanesulfonoate. In one embodiment, the cenicriviroc mesylate is a crystalline material, such as a pale greenish-yellow crystalline powder.

With `O=C1Nc2ccc(Cl)cc2[C@@](C#CC2CC2)(C(F)(F)F)O1` [EFV, efavirenz, reference compound] the “subjects with APRI 0.5-1.5” value ([1]; Baseline) was 4%, the “subjects with APRI <0.5” value ([1]; Baseline) was 96% and the “subjects with FIB-4 <1.45” value ([1]; Baseline) was 100%. For the same molecule, the “subjects with APRI <0.5” value ([1]; Week 24) was 100%, the “subjects with APRI decreased 1 category from baseline” value ([1]; Week 24) was 5% and the “subjects with FIB-4 <1.45” value ([1]; Week 24) was 100%. For the same molecule, the “subjects with APRI <0.5” value ([1]; Week 48) was 100%, the “subjects with APRI decreased 1 category from baseline” value ([1]; Week 48) was 6% and the “subjects with FIB-4 1.45-3.25” value ([1]; Week 48) was 6%. The “subjects with FIB-4 <1.45” value ([1]; Week 48) was 94%, the “plasma MCP-1 over time” value ([2]; CVC 100 mg and 200 mg, EFV, up to Week 48) was “remained at baseline values” and the “D-dimer Changes from baseline at Week 24, Mean” value ([2]; EFV 600 mg) was -53 ng/mL. For the same molecule, the “D-dimer Changes from baseline at Week 24, Median” value ([2]; EFV 600 mg) was -26 ng/mL, the “D-dimer Changes from baseline at Week 48, Mean” value ([2]; EFV 600 mg) was -34 ng/mL and the “D-dimer Changes from baseline at Week 48, Median” value ([2]; EFV 600 mg) was 0.0 ng/mL. For the same molecule, the “Fibrinogen Changes from baseline at Week 24, Mean” value ([2]; EFV 600 mg) was -28 mg/dL, the “Fibrinogen Changes from baseline at Week 24, Median” value ([2]; EFV 600 mg) was -31 mg/dL and the “Fibrinogen Changes from baseline at Week 48, Mean” value ([2]; EFV 600 mg) was -30 mg/dL. For the same molecule, the “Fibrinogen Changes from baseline at Week 48, Median” value ([2]; EFV 600 mg) was -22 mg/dL, the “IL-6 Changes from baseline at Week 24, Mean” value ([2]; EFV 600 mg) was -8.72 pg/mL and the “IL-6 Changes from baseline at Week 24, Median” value ([2]; EFV 600 mg) was 0.00 pg/mL. For the same molecule, the “IL-6 Changes from baseline at Week 48, Mean” value ([2]; EFV 600 mg) was -13.11 pg/mL, the “IL-6 Changes from baseline at Week 48, Median” value ([2]; EFV 600 mg) was 0.00 pg/mL and the “MCP-1 Changes from baseline at Week 24, Mean” value ([2]; EFV 600 mg) was -44 pg/mL. The “MCP-1 Changes from baseline at Week 24, Median” value ([2]; EFV 600 mg) was -17 pg/mL, the “MCP-1 Changes from baseline at Week 48, Mean” value ([2]; EFV 600 mg) was 4.2 pg/mL and the “MCP-1 Changes from baseline at Week 48, Median” value ([2]; EFV 600 mg) was 33.6 pg/mL. The “hs-CRP Changes from baseline at Week 24, Mean” value ([2]; EFV 600 mg) was -0.46 mg/dL, the “hs-CRP Changes from baseline at Week 24, Median” value ([2]; EFV 600 mg) was -0.01 mg/dL and the “hs-CRP Changes from baseline at Week 48, Mean” value ([2]; EFV 600 mg) was -0.71 mg/dL. The “hs-CRP Changes from baseline at Week 48, Median” value ([2]; EFV 600 mg) was -0.03 mg/dL, the “sCD14 Changes from baseline Week 32, Mean” value ([2]; EFV 600 mg, original values) was 480000 pg/mL and the “sCD14 Changes from baseline Week 32, Median” value ([2]; EFV 600 mg, original values) was 170000 pg/mL. For the same molecule, the “sCD14 Changes from baseline at Week 12, Mean” value ([2]; EFV 600 mg, original values) was 90000 pg/mL, the “sCD14 Changes from baseline at Week 12, Median” value ([2]; EFV 600 mg, original values) was 1.8e+07 pg/mL and the “sCD14 Changes from baseline at Week 24, Mean” value ([2]; EFV 600 mg, original values) was 230000 pg/mL. The “sCD14 Changes from baseline at Week 24, Median” value ([2]; EFV 600 mg, original values) was 130000 pg/mL, the “sCD14 Changes from baseline at Week 48, Mean” value ([2]; EFV 600 mg, original values) was 640000 pg/mL and the “sCD14 Changes from baseline at Week 48, Median” value ([2]; EFV 600 mg, original values) was 460000 pg/mL. The “sCD14 over 48 weeks of treatment (linear mixed-model analysis of repeat sCD14 analysis)” value ([2]; both CVC treatment arms, EFV arm) was “increase”.
In the case of `CCc1ccc(CCOc2ccc(CC3SC(=O)NC3=O)cc2)nc1` (centres unmarked) [PGZ, Pioglitazone, reference compound], the Cmin on co-administration [3] is reported as “remained unchanged” and the “steady-state Cmax and AUC0-tau on co-administration” value [3] is reported as “modest decrease”.
In the case of `CCCCOCCOc1ccc(-c2ccc3c(c2)C=C(C(=O)Nc2ccc([S@@+]([O-])Cc4cncn4CCC)cc2)CCCN3CC(C)C)cc1` [cenicriviroc mesylate, (S)-8-[4-(2-Butoxyethoxy)phenyl]-1-isobutyl-N-(4-{[(1-propyl-1H-imidazol-5-yl)methyl]sulfinyl}phenyl)-1,2,3,4-tetrahydro-1-benzazocine-5-carboxamide monomethanesulfonoate], the solubility ([4]; 99.5% ethanol) is reported as “sparingly soluble”, the solubility ([4]; acetonitrile, 1-octanol, tetrahydrofuran) is reported as “slightly soluble” and the solubility ([4]; aqueous solution at pH 3) is reported as “sparingly soluble”. For the same molecule, the solubility ([4]; aqueous solution from pH 1 to 2) was “freely soluble”, the solubility ([4]; ethyl acetate and diethylether) was “practically insoluble” and the solubility ([4]; glacial acetic acid, methanol, benzyl alcohol, dimethylsulfoxide, N,N-dimethylformamide) was “freely soluble”. The solubility ([4]; pH 4 to 13 and in water) was “practically insoluble” and the solubility ([4]; pyridine and acetic anhydride) was “soluble”.

From patent US20200000772A1, “CENICRIVIROC COMBINATION THERAPY FOR THE TREATMENT OF FIBROSIS” (Tobira Therapeutics, Inc., priority 2014, published 2020)
